Source: article PMC8151276, “An Integrated Approach toward NanoBRET Tracers for Analysis of GPCR Ligand Engagement” (Molecules, 2021)

Key:
Type in all cases: binding
[1] = target: T1, CXCR4 (Homo sapiens, UniProt P61073); assay: NanoBRET screen HiBiT-CXCR4 in HEK293
T1 construct: purchased Promega (in-house HiBiT-GPCR construct library, NanoBRET)
Description: (§1) Each tracer candidate was screened across the entire library of HiBiT-GPCR constructs using NanoBRET as the detection modality. As depicted in Figure 4A, the specificity of interactions was evaluated through decrease in BRET due to competitive displacement of a bound tracer by excess parental compound. Each tracer was analyzed for binding to each HiBiT-GPCR fusion in the absence and in the presence of competing parental compound. Briefly, HEK293 cells were transfected with HiBiT-GPCR constructs diluted into promoterless DNA to reduce expression and maximize translocation to the cell surface. Each tracer candidate was then screened at concentrations of 1 μM and 0.1 μM across cells expressing these fusions. Cells were treated for 1.5 h with tracer either alone or in the presence of 20 μM competing parental compound (i.e., control). BRET was measured upon addition of purified LgBiT and subsequent complementation with HiBiT genetically fused to a GPCR. The specificity of interactions was assessed through a decrease in BRET signal due to competitive displacement of the bound tracer. To further gauge the robustness of these interactions, the fold response over the control (i.e., BRETtracer/BRETcontrol) was calculated. We chose a 1.5-fold response, which translates to ≥7-fold signal over noise as the minimal threshold required to score an interaction as positive. […]. Below we highlight the screening results obtained for our exemplary fluorescent tracers based on Clozapine, Amitriptyline and AZD1283.
(§2) HiBiT-GPCR DNA constructs were diluted in 10 mM Tris pH 8 to a final concentration of 0.01 μg/μL, arrayed in 96-well plates and stored at −20 °C. For transfection, HEK293 cells were suspended in Opti-MEM (without phenol red) supplemented with 2% fetal bovine serum (Seradigm) and 100 units/mL penicillin–streptomycin (Gibco) at a final concentration of 220,000 cells/mL and dispensed into white 96-well plates at 90 μL/well. Subsequent transfections and screens were carried using an Agilent Bravo Automated Liquid Handling Platform. First, the 96-well HiBiT DNA arrays were diluted 25-fold in Opti-MEM (without serum or phenol red) to a final concentration of 0.0004 μg/μL and 20 μL of the diluted DNAs were transferred into new 96-well plates. Next, promoterless carrier DNA (1 μg/μL) was diluted 25-fold (0.04 μg/μL) and then dispensed into the diluted arrays at 20 μL/well. Following brief mixing, Viafect transfection reagent (Promega) diluted 16-fold into Opti-MEM was dispensed into the plates at 40 μL/well. After mixing by pipetting, plates were incubated for 10 min on the pipetting station deck. The DNA-transfection reagent complexes were then added to plates containing cells. To facilitate the screen, 10 μL of DNA-transfection reagent complexes were added in duplicates to the top 4 and bottom 4 rows, resulting in two identical 48-well arrays per plate. Plates with transfected cells were incubated for 18–20 h at 37 °C/5% CO2. A screen of each tracer across the entire library using two different concentrations requires duplicate plates of transfected cells. Depending on the number of tracers being screened, transfections can be scaled up using the same ratios. The next day, for each tracer, four 20× screening solutions in tracer dilution buffer (Promega) were prepared: two duplicates at final concentration of 20 μM and two duplicates at a final concentration of 2 μM. A competing unmodified compound was added to one of each duplicate at a final concentration of 400 μM. The four resulting solutions were diluted 4-fold in Opti-MEM without serum or phenol red to generate 5× solutions (5 µM and 0.5 µM tracer +/− 100 μM competing compound). To screen the library, a BioTek MultiFlo FX liquid dispenser was used to dispense 22.5 µL of tracer solution to the top 4 rows and 22.5 µL tracer + competing compound solution to the 4 bottom rows. Plates were briefly mixed on an orbital shaker and incubated for 1.5 h at room temperature. […]

[2] = target: T2, GABBR1 (Homo sapiens, UniProt Q9UBS5); assay: NanoBRET screen HiBiT-GABBR1 in HEK293
T2 construct: purchased Promega (in-house HiBiT-GPCR construct library, NanoBRET)
Description: as §1, §2

[3] = target: T3, F2R (Homo sapiens, UniProt P25116); assay: NanoBRET screen HiBiT-F2R in HEK293
T3 construct: purchased Promega (in-house HiBiT-GPCR construct library, NanoBRET)
T3 sequence (P25116 22-425): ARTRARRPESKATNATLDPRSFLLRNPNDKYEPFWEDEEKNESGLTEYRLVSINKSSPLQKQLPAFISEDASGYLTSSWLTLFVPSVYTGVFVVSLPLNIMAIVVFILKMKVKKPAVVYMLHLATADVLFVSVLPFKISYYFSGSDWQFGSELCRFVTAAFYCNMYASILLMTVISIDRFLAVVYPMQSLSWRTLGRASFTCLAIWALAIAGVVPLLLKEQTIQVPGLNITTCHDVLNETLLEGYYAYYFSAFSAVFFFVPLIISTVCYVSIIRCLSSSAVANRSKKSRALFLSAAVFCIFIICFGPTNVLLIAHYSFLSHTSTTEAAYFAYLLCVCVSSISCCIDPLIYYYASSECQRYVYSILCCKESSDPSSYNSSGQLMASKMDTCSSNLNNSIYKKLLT
Description: as §1, §2

[4] = target: T4, PTGER2 (Homo sapiens, UniProt P43116); assay: NanoBRET screen HiBiT-PTGER2 in HEK293
T4 construct: purchased Promega (in-house HiBiT-GPCR construct library, NanoBRET)
Description: as §1, §2

[5] = target: T5, HCRTR2 (Homo sapiens, UniProt O43614); assay: NanoBRET screen HiBiT-HCRTR2 in HEK293
T5 construct: purchased Promega (in-house HiBiT-GPCR construct library, NanoBRET)
T5 sequence (O43614 1-444): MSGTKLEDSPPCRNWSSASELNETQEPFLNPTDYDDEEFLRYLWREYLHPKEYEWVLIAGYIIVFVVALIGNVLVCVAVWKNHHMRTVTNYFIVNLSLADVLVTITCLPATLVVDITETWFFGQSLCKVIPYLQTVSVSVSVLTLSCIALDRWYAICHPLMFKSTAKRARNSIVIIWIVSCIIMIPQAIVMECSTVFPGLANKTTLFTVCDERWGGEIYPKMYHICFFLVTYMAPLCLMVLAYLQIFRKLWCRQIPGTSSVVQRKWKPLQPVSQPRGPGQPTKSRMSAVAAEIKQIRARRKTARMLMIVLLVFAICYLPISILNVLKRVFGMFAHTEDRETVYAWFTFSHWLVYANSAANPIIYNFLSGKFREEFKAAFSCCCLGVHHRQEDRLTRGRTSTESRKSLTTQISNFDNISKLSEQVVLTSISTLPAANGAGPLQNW
Description: as §1, §2

[6] = target: T6, NPBWR2 (Homo sapiens, UniProt P48146); assay: NanoBRET screen HiBiT-NPBWR2 in HEK293
T6 construct: purchased Promega (in-house HiBiT-GPCR construct library, NanoBRET)
Description: as §1, §2

[7] = target: T7, HRH2 (Homo sapiens, UniProt P25021); assay: NanoBRET screen HiBiT-HRH2 in HEK293
T7 construct: purchased Promega (in-house HiBiT-GPCR construct library, NanoBRET)
Description: as §1, §2

T6 sequence (P48146 whole entry): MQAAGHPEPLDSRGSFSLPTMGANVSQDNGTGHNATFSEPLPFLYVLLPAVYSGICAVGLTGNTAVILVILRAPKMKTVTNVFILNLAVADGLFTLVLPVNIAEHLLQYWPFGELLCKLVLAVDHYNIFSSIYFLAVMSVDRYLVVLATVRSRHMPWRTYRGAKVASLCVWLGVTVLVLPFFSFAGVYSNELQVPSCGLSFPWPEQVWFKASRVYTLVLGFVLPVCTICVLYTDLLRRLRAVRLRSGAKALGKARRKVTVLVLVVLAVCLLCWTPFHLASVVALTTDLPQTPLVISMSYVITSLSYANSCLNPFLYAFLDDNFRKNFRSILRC
T7 sequence (P25021 whole entry): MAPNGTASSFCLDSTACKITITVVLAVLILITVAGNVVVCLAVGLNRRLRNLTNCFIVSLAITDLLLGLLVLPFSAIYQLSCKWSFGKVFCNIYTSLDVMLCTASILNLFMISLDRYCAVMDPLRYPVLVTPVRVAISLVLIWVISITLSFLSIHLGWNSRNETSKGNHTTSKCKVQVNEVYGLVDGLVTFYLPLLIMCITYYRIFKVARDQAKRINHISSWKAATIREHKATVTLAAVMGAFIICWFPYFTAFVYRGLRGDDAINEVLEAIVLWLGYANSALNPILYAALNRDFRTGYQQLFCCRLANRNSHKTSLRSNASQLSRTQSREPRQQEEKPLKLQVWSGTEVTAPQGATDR
T2 sequence (Q9UBS5 15-961 limits assumed): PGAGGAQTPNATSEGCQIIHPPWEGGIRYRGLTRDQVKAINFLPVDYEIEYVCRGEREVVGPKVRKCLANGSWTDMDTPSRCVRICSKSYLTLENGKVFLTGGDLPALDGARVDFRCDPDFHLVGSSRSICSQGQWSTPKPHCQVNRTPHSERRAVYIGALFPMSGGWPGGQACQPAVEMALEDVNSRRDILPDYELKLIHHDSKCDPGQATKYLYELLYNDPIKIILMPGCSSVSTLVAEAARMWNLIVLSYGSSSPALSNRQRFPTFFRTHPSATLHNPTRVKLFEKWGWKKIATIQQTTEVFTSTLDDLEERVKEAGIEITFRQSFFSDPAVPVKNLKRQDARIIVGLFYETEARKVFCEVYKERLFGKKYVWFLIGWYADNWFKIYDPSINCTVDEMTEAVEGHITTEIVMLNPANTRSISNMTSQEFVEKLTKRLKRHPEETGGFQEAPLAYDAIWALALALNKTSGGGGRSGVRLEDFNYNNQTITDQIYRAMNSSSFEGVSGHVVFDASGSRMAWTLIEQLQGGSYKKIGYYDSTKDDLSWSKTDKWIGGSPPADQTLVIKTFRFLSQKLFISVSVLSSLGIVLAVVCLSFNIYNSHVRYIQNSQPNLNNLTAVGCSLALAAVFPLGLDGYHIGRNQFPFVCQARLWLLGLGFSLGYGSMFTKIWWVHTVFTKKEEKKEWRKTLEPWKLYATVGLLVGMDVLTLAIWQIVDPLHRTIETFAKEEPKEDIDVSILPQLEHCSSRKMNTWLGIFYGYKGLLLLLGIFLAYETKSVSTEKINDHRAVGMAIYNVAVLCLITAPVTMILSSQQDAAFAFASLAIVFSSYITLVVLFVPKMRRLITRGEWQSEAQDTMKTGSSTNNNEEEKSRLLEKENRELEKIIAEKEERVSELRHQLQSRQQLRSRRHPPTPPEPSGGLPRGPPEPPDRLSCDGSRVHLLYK
T4 sequence (P43116 whole entry): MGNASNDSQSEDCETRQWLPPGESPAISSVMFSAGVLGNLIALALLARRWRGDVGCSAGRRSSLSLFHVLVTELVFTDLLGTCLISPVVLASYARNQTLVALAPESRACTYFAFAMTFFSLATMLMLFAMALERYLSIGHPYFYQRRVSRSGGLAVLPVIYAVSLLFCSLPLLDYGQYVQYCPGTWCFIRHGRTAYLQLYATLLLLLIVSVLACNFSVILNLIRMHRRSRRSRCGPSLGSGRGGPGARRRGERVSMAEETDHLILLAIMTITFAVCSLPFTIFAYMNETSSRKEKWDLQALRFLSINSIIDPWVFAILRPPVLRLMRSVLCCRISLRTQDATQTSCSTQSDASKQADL
T1 sequence (P61073 whole entry): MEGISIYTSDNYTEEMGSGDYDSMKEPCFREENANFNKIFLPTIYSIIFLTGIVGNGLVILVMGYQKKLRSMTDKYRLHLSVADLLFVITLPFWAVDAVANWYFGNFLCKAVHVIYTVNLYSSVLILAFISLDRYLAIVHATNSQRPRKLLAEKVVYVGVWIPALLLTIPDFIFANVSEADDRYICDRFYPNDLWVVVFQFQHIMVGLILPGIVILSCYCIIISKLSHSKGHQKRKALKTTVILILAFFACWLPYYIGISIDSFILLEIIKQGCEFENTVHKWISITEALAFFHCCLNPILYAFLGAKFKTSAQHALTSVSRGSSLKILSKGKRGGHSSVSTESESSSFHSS

Structure (SMILES): Cc1cc2c(s1)Nc1ccccc1N=C2N1CCN(CCCNC(=O)CCOCCOCCOCCOCCNC(=O)CCc2ccc3n2[B-](F)(F)[N+]2=C(c4ccc[nH]4)C=CC2=C3)CC1 [Olanzapine-a-2-NB590]
- NanoBRET Fold Response ([1]; CXCR4, tracer 0.1μM): 1.04
- NanoBRET Fold Response ([1]; CXCR4, tracer 1μM): 1.10
- NanoBRET Fold Response ([2]; GABBR1, tracer 0.1μM): 0.94
- NanoBRET Fold Response ([2]; GABBR1, tracer 1μM): 1.20
- NanoBRET Fold Response ([3]; F2R, tracer 0.1μM): 1.01
- NanoBRET Fold Response ([3]; F2R, tracer 1μM): 0.90
- NanoBRET Fold Response ([4]; PTGER2, tracer 0.1μM): 1.03
- NanoBRET Fold Response ([4]; PTGER2, tracer 1μM): 0.98
- NanoBRET Fold Response ([5]; HCRTR2, tracer 0.1μM): 0.95
- NanoBRET Fold Response ([5]; HCRTR2, tracer 1μM): 0.97
- NanoBRET Fold Response ([6]; NPBWR2, tracer 0.1μM): 0.98
- NanoBRET Fold Response ([6]; NPBWR2, tracer 1μM): 1.02
- NanoBRET Fold Response ([7]; HRH2, tracer 0.1μM): 0.89
- NanoBRET Fold Response ([7]; HRH2, tracer 1μM): 0.85

Structure (SMILES): CCCn1c(=O)c2[nH]c(-c3ccc(OCC(=O)NCCNC(=O)CCOCCNC(=O)c4ccc(CNC(=O)CCc5ccc6n5[B-](F)(F)[N+]5=C(c7ccc[nH]7)C=CC5=C6)cc4)cc3)nc2n(CCC)c1=O [XAC-3-NB590]
- NanoBRET Fold Response ([1]; CXCR4, tracer 0.1μM): 0.90
- NanoBRET Fold Response ([1]; CXCR4, tracer 1μM): 0.92
- NanoBRET Fold Response ([2]; GABBR1, tracer 0.1μM): 0.86
- NanoBRET Fold Response ([2]; GABBR1, tracer 1μM): 1.00
- NanoBRET Fold Response ([3]; F2R, tracer 0.1μM): 1.20
- NanoBRET Fold Response ([3]; F2R, tracer 1μM): 0.80
- NanoBRET Fold Response ([4]; PTGER2, tracer 0.1μM): 1.04
- NanoBRET Fold Response ([4]; PTGER2, tracer 1μM): 1.09
- NanoBRET Fold Response ([5]; HCRTR2, tracer 0.1μM): 1.06
- NanoBRET Fold Response ([5]; HCRTR2, tracer 1μM): 0.97
- NanoBRET Fold Response ([6]; NPBWR2, tracer 0.1μM): 1.01
- NanoBRET Fold Response ([6]; NPBWR2, tracer 1μM): 0.99
- NanoBRET Fold Response ([7]; HRH2, tracer 0.1μM): 0.82
- NanoBRET Fold Response ([7]; HRH2, tracer 1μM): 1.15

Structure (SMILES): COc1ccc2c(n1)c(CCNC(C)=O)cn2CCNC(=O)CCc1ccc2n1[B-](F)(F)[N+]1=C(c3ccc[nH]3)C=CC1=C2 [Azamelatonin-1-NB590]
- NanoBRET Fold Response ([1]; 0.1μM tracer): 1.11
- NanoBRET Fold Response ([1]; 1μM tracer): 0.82
- NanoBRET Fold Response ([2]; 0.1μM tracer): 1.44
- NanoBRET Fold Response ([2]; 1μM tracer): 1.44
- NanoBRET Fold Response ([3]; 0.1μM tracer): 0.98
- NanoBRET Fold Response ([3]; 1μM tracer): 0.96
- NanoBRET Fold Response ([4]; 0.1μM tracer): 1.01
- NanoBRET Fold Response ([4]; 1μM tracer): 1.07
- NanoBRET Fold Response ([5]; 0.1μM tracer): 1.04
- NanoBRET Fold Response ([5]; 1μM tracer): 1.30
- NanoBRET Fold Response ([6]; 0.1μM tracer): 0.91
- NanoBRET Fold Response ([6]; 1μM tracer): 0.82
- NanoBRET Fold Response ([7]; 0.1μM tracer): 0.99
- NanoBRET Fold Response ([7]; 1μM tracer): 0.99
